Test results published in patent US11541029B2, “High penetration compositions and their applications” (Techfields Pharma Co., Ltd., priority 2008, dated 2023).
Where two headings read alike, the source gives them in different places.

Key:
[1] = In vitro penetration rate through human skin, Franz cells; format: in vitro ADME
Protocol: Penetration rates of HPCs through human skin were measured in vitro by Franz cells. A Franz cell has two chambers, a top sample chamber and a bottom receptor chamber.
Test compounds were diethylaminoethyl N-acetyl-3-(3,4-diacetyloxy-phenyl-L-alanine ester.HCl salt (A), diethylaminopropyl N-acetyl-D-3,5,3′,5′-tetraiodothyronine.HCl salt(B), 1-piperidineethyl 2-[4-(4-chlorobenzoyl)phenoxy]-2-methyl-propinate. HCl salt(C), 3-piperidinemethyl 5-(2,5-dimethylphenoxy)-2,2-dimethylpentanoate.HCl salt(D), diethylaminoethyl (S)-3-(benzoylaminomethyl)-5-methylhexanoate.HCl salt(E), N-acetyl-3-(3,4-diacetyloxy-phenyl-L-alanine(F) sodium salt, N-acetyl-D-3,5,3′,5′-tetraiodothyronine sodium salt(G), 2-[4-(4-chlorobenzoyl)phenoxy]-2-methyl-propinic acid sodium salt(H), 5-(2,5-dimethylphenoxy)-2,2-dimethylpentanoic acid sodium salt(I), and (S)-3-(benzoylaminomethyl)-5-methylhexanoic acid sodium salt(J).
10% solution of the test compound in water was used. The amount of a HPC or its parent drug penetrating a skin was determined by high-performance liquid chromatography method. The results were shown in FIG. 8 and apparent flux values of the HPCs and their corresponding parent drugs were summarized in Table 2.

[2] = tested on: lesions similar to psoriasis generated by Malassezia; assay: Anti-psoriasis activity, Malassezia-induced lesions; format: in vivo, Chinese white rabbits; details: HPC 5% aq. applied to the lesion areas twice per day
Protocol: Heavy suspensions of Malassezia [Rosenberg, E. W., et al., Mycopathologia, 72, 147-154 (1980)] were applied to the shaved skin on the backs of Chinese white rabbits (n=4×6) twice (at […]) per day for 2 weeks to generate lesions similar to psoriasis. HPCs (5%, aq.) were applied to the same areas 3 hours (10 am and 6 pm) after the application of Malassezia (7 am and 3 pm). […] HCl, diethylaminoethyl 1,8-diethyl-1,3,4,9-tetrahydropyrano-[3,4-b]indole-1-acetate.HCl, diethylaminoethyl 2-amino-3-(4-bromo-benzoyl)benzeneacetate.HCl, diethylaminoethyl 3-chloro-4-(2-propenyloxy)benzeneacetate. HCl, diethylaminoethyl 1-(4-chlorobenzoyl-5-methoxy-2-methyl-1H-indole-3-acetoxyacetate. HCl, diethylaminoethyl 4-(4-chlorophenyl)-2-phenyl-5-thiazoleacetate.HCl, and diethylaminoethyl 3-(4-chlorophenyl)-1-phenyl-1H-pyrazole-4-acetate.HCl

[3] = tested on: SLAC:NOD-IDDM, type 1 diabetes; assay: Anti-diabetes (type I) activity of HPCs of NSAIAs; format: in vivo, mice
Excerpt: 10% aqueous solution of diethylaminoethyl acetylsalicylate.acetylsalicylic acid salt (P-1, […]); 4-acetamidophenyl salicylyldimethylaminobutyrate. HCl (P-6), diethylaminoethyl 5-(2,4-difluorophenyl)acetylsalicylate.5-(2,4-difluorophenyl)acetylsalicylic acid salt (P-8), diethylaminoethyl salicylsalicylate.AcOH(P-9), diethylaminoethyl 5-acetamido-acetylsalicylate. HCl (P-58), diethylaminoethyl 2-(ρ-isobutylphenyl) propionate.citric acid (P-59), diethylaminoethyl acetylsalicylsalicylate. acetylsalicylsalicylsalicylic acid salt (P-60) (equal to of 20 mg/kg of NSAIAs) were administered transdermally to the shaved back (about 1.5 cm^2) of mice twice per day (at 8 am and 5 pm) for 7 weeks.
The blood glucose levels were measured once every 3 days at 4:30 pm (no fasting) from the fourth week to the seventh week as shown in Table 11.

SLAC/DB/DB obese mice = assay: Blood glucose and blood lipid levels in DB/DB mice; format: in vivo; details: 30 mg/kg transdermally once per day
Protocol: HPCs in the present disclosure lowered blood glucose levels and blood lipid levels in mice models (SLAC/DB/DB, obese mice, n=7). 30 mg/kg of 8% diethylaminoethyl acetylsalicylate.HCl salt (P-1, in 25% ethanol); 4-acetamidophenyl salicylyldimethylaminobutyrate.HCl (P-6, in 25% ethanol), diethylaminoethyl 5-(2,4-difluorophenyl)acetylsalicylate.5-(2,4-difluorophenyl)acetylsalicylic acid salt (P-8, in 25% ethanol), diethylaminoethyl salicylsalicylate.HCl salt (P-9, in 25% ethanol), diethylaminoethyl salicylate.AcOH(P-10, in 25% ethanol), diethylaminoethyl 5-acetamido-acetylsalicylate.HCl(P-58, in 25% ethanol), diethylaminoethyl acetylsalicylsalicylate.HCl salt (P-59, in 25% ethanol), diethylaminoethyl acetylsalicylsalicylsalicylate.HCl salt (P-60, in 25% ethanol) were administered transdermally to the backs (4 cm^2,fur was shaved) of DB/DB mice(SLAC/DB/DB, 10-12 weeks old) once per day (at 8 am) for 5 weeks. The blood glucose levels were measured once per week and blood lipid levels were measured once every other week.

normal SD rats (SLAC/SD) = assay: Blood glucose in normal SD rats treated with HPCs of NSAIAs; format: in vivo; details: 30 mg/kg transdermally once per day, no fasting
Protocol: (§1) A HPC in the present disclosure lowered blood glucose levels in rat models (SLAC/GK, type 2 diabetes, n=7). 30 mg/kg of 8% diethylaminoethyl acetylsalicylate.HCl salt (P-1, in 25% ethanol); 4-acetamidophenyl salicylyldimethylaminobutyrate.HCl (P-6, in 25% ethanol), diethylaminoethyl 5-(2,4-difluorophenyl)acetylsalicylate.5-(2,4-difluorophenyl)acetylsalicylic acid salt (P-8, in 25% ethanol), diethylaminoethyl salicylsalicylate.HCl salt (P-9, in 25% ethanol), diethylaminoethyl salicylate.AcOH(P-10, in 25% ethanol), diethylaminoethyl 5-acetamido-acetylsalicylate.HCl(P-58, in 25% ethanol), diethylaminoethyl acetylsalicylsalicylate. HCl salt (P-59, in 25% ethanol), diethylaminoethyl acetylsalicylsalicylsalicylate. HCl salt (P-60, in 25% ethanol) were administered transdermally to the backs (6 cm^2, fur was shaved) of GK rats (SLAC/GK, 14-16 weeks old) and normal SD rats (SLAC/SD, 14-16 weeks old) once per day (at 8 am) for 6 weeks.
(§2) The blood glucose levels were measured once every 3 days at 4:30 pm (no fasting) from the third week to the sixth week as shown in Table 10a and 10b. […] Moreover, the blood glucose levels of the rats stayed at normal level (6-9 mmol/L, no fasting) after the treatment was stopped for 40 days.

[4] = tested on: GK rats (SLAC/GK, type 2 diabetes); assay: Anti-diabetes (type II) activity of HPCs of NSAIAs in GK rats; format: in vivo; details: 30 mg/kg transdermally once per day, no fasting
Protocol: as §1, §2

[5] = tested on: Human colon cancer cells (LS174J); assay: Human colon cancer xenograft in nude mice; details: about 50 μl of 5% topically every 12 hours
Excerpt: Human colon cancer cells (LS174J, 2-3 mm^3 of tumor tissue was used in each mouse) were subcutaneously xenografted into nude mice (BALB).

[6] = 10% solution in water, human skin 360-400 μm, Franz cells

CC(C)C[C@H](CNC(=O)c1ccccc1)CC(=O)[O-].[Na+] [(S)-3-(benzoylaminomethyl)-5-methylhexanoic acid sodium salt, reference compound]
apparent flux (in vitro penetration rate) [1, 6]: 1 μg/cm^2/h

CCN(CC)CCOC(=O)Cc1cccc(C(=O)c2ccc(Br)cc2)c1N.Cl [diethylaminoethyl 2-amino-3-(4-bromo-benzoyl)benzeneacetate.HCl]
time until lesions healed after the application [2]: 10 days

CCN(CC)CCOC(=O)Cc1cc(C)c(C(=O)c2ccc(Cl)cc2)n1C.Cl [diethylaminoethyl 5-(4-Chlorobenzoyl)-1,4-dimethyl-1H-pyrrole-2-acetate. HCl]
time until lesions healed after the application [2]: 10 days

CCN(CC)CCOC(=O)Cc1cn(-c2ccccc2)nc1-c1ccc(Cl)cc1.Cl [diethylaminoethyl 3-(4-chlorophenyl)-1-phenyl-1H-pyrazole-4-acetate.HCl]
time until lesions healed after the application [2]: 10 days

CCN(CC)CCOC(=O)[C@H](Cc1ccc(OC(C)=O)c(OC(C)=O)c1)NC(C)=O.Cl [diethylaminoethyl N-acetyl-3-(3,4-diacetyloxy-phenyl-L-alanine ester.HCl salt]
apparent flux (in vitro penetration rate) [1]: 550 μg/cm^2/h

CCN(CC)CCOC(=O)C[C@@H](CNC(=O)c1ccccc1)CC(C)C.Cl [diethylaminoethyl (S)-3-(benzoylaminomethyl)-5-methylhexanoate.HCl salt]
apparent flux (in vitro penetration rate) [1, 6]: 650 μg/cm^2/h

CCc1cccc2c3c([nH]c12)C(CC)(CC(=O)OCCN(CC)CC)OCC3.Cl (centres unmarked) [diethylaminoethyl 1,8-diethyl-1,3,4,9-tetrahydropyrano-[3,4-b]indole-1-acetate.HCl]
time until lesions healed after the application [2]: 10 days

CC(C)(Oc1ccc(C(=O)c2ccc(Cl)cc2)cc1)C(=O)[O-].[Na+] [2-[4-(4-chlorobenzoyl)phenoxy]-2-methyl-propinic acid sodium salt, reference compound]
apparent flux (in vitro penetration rate) [1]: 1 μg/cm^2/h

Cc1ccc(C)c(OCCCC(C)(C)C(=O)OCC2CCCNC2)c1.Cl (centres unmarked) [3-piperidinemethyl 5-(2,5-dimethylphenoxy)-2,2-dimethylpentanoate.HCl salt]
apparent flux (in vitro penetration rate) [1]: 400 μg/cm^2/h

CCN(CC)CCOC(=O)COC(=O)Cc1c(C)n(C(=O)c2ccc(Cl)cc2)c2ccc(OC)cc12.Cl [diethylaminoethyl 1-(4-chlorobenzoyl-5-methoxy-2-methyl-1H-indole-3-acetoxyacetate. HCl]
time until lesions healed after the application [2]: 10 days

CC(C)(Oc1ccc(C(=O)c2ccc(Cl)cc2)cc1)C(=O)OCCN1CCCCC1.Cl [1-piperidineethyl 2-[4-(4-chlorobenzoyl)phenoxy]-2-methyl-propinate. HCl salt]
apparent flux (in vitro penetration rate) [1]: 590 μg/cm^2/h

CC(=O)N[C@@H](Cc1ccc(OC(C)=O)c(OC(C)=O)c1)C(=O)[O-].[Na+] [N-acetyl-3-(3,4-diacetyloxy-phenyl-L-alaninesodium salt, reference compound]
apparent flux (in vitro penetration rate) [1]: 1 μg/cm^2/h

CC(=O)Oc1ccc(-c2ccc(F)cc2F)cc1C(=O)O.CCN(CC)CCOC(=O)c1cc(-c2ccc(F)cc2F)ccc1OC(C)=O [P-8, diethylaminoethyl 5-(2,4-difluorophenyl)acetylsalicylate.5-(2,4-difluorophenyl)acetylsalicylic acid salt]
blood glucose, Baseline ([3]; equal to 20 mg/kg of NSAIAs transdermally twice per day for 7 weeks): 19.4 ± 3.1 mmol/L
blood glucose, Average ([3]; fourth week to seventh week, no fasting, equal to 20 mg/kg of NSAIAs transdermally twice per day): 9.7 ± 1.4 mmol/L
Cholesterol (total), Day 1 (SLAC/DB/DB obese mice): 6.8 ± 0.4 mmol/L
Cholesterol (total), Week 5 (SLAC/DB/DB obese mice): 5.0 ± 0.2 mmol/L
Triglycerides, Day 1 (SLAC/DB/DB obese mice): 4.4 ± 0.4 mmol/L
Triglycerides, Week 5 (SLAC/DB/DB obese mice): 2.2 ± 0.4 mmol/L
blood glucose, Day 1 (SLAC/DB/DB obese mice): 14.5 ± 2.7 mmol/L
blood glucose, Week 5 (SLAC/DB/DB obese mice): 8.4 ± 2.1 mmol/L
blood glucose, Average (Week 2-5) (normal SD rats (SLAC/SD)): 5.7 ± 1.2 mmol/L
blood glucose, Day 1 (normal SD rats (SLAC/SD)): 5.6 ± 1.5 mmol/L
blood glucose, Average (Week 2-5) [4]: 8.3 ± 2.1 mmol/L
blood glucose, Day 1 [4]: 16.9 ± 2.8 mmol/L

CCN(CC)CCOC(=O)Cc1ccc(C(=O)c2ccc(C)cc2)n1C.Cl [P-13, diethylaminoethyl 1-methyl-5-(4-methylbenzoyl)-1H-pyrrole-2-acetate.HCl]
time until lesions healed after the application [2]: 10 days
Weight of mice at day 30 [5]: 23 ± 3
tumor Size at day 30 [5]: 690 ± 250 mm^3

CCN(CC)CCCOC(=O)[C@@H](Cc1cc(I)c(Oc2cc(I)c(O)c(I)c2)c(I)c1)NC(C)=O.Cl [diethylaminopropyl N-acetyl-D-3,5,3′,5′-tetraiodothyronine.HCl salt]
apparent flux (in vitro penetration rate) [1]: 480 μg/cm^2/h

CCN(CC)CCOC(=O)Cc1sc(-c2ccccc2)nc1-c1ccc(Cl)cc1.Cl [diethylaminoethyl 4-(4-chlorophenyl)-2-phenyl-5-thiazoleacetate.HCl]
time until lesions healed after the application [2]: 10 days

Cc1ccc(C)c(OCCCC(C)(C)C(=O)[O-])c1.[Na+] [5-(2,5-dimethylphenoxy)-2,2-dimethylpentanoic acid sodium salt, reference compound]
apparent flux (in vitro penetration rate) ([1]; human, 10 % solution in water): 1 μg/cm^2/h

CC(=O)N[C@H](Cc1cc(I)c(Oc2cc(I)c(O)c(I)c2)c(I)c1)C(=O)[O-].[Na+] [N-acetyl-D-3,5,3′,5′-tetraiodothyronine sodium salt, reference compound]
apparent flux (in vitro penetration rate) ([1]; human, 10 % solution in water): 1 μg/cm^2/h

C=CCOc1ccc(CC(=O)OCCN(CC)CC)cc1Cl.Cl [diethylaminoethyl 3-chloro-4-(2-propenyloxy)benzeneacetate. HCl]
time until lesions healed after the application [2]: 10 days
